# From patent US20180085356A1, “METHOD OF TREATING DISEASE CHARACTERISED BY PROTEIN AGGREGATE DEPOSITION IN NEURONAL CELLS” (CHRONOS THERAPEUTICS LIMITED, priority 2013, published 2018)
# What was measured:
# S. cerevisiae = assay: Chronological lifespan of ageing stationary phase yeast culture (outgrowth viability); assay type: cell-based, Saccharomyces cerevisiae; conditions: 40 μM tacrolimus
# Protocol: Analysis of chronological lifespan in yeast involves assessment of the viability of a stationary phase culture over time. Yeast are stored in glycerol stocks at −80° C., inoculated into YPD (Yeast extract-Peptone-Dextrose) and incubated overnight. From this culture, a 1/25 dilution is prepared to produce an ageing culture that is incubated at 30° C. throughout the duration of the experiment. The first 24 hours of yeast growth are assessed in Complete Synthetic Media (CSM) to confirm that the culture has reached stationary phase. After 24 hours, when the culture has completed the exponential growth phase and has entered stationary phase, its viability can then be assessed. Viability is measured by taking a 5 μl sample of the ageing culture and diluting this into a total volume of 150 μlYPD. Growth of this “outgrowth culture” is measured using the Bioscreen-C MBR machine that both incubates the plates and measures optical turbidity every 20 minutes. Comparison of the viability curves of outgrowth cultures taken over several successive days can be used to observe the reduction in viability of the stationary phase culture over time. Specifically, the interval between the time taken for the outgrowth culture to reach OD600=0.6 on day 1, and the time taken to reach OD600=0.6 on a later day (for example day 7) can be used as a measure of the “ageing rate” of the culture. […]
# [1] = test system: C. elegans expressing human alpha-synuclein in the body wall muscle; assay: C. elegans lifespan assay, alpha-synuclein strain; assay type: in vivo, Caenorhabditis elegans; conditions: p<0.05 DMSO vs. Tacrolimus
# Protocol: Tacrolimus was tested in a number of disease models using the nematode worm, Caenorhabditis elegans, in which aggregate-prone proteins associated with neurodegenerative diseases are expressed in certain cell types. The effect of tacrolimus was determined by measuring the lifespan of worms in the presence and absence of tacrolimus, using the following general methodology. All of the worms tested using these assays also contained, in addition to the transgene expressing the disease-related protein, a mutation in the bus-5 gene which confers drug-sensitivity.
# C. elegans cultures were synchronised by incubating an asynchronous culture in basic sodium hypochlorite solution to kill everything but the bleach-resistant mature eggs. The eggs were added on to agar plates and then allowed to hatch and develop in the presence of the test compound (or vehicle) and bacterial food source. […] From this point on, each ageing population was inspected at regular intervals (e.g. daily) and viability assessed by counting the number of dead worms.
# The cumulative number of dead worms for each population was used to generate a survival/viability plot to determine chronological lifespan (CLS). Survival was analysed using the Kaplan-Meier log-rank survival analysis method, using the Online Application for Survival (OASIS; see http://sbi.postech.ac.kr/oasis). […]
# caspase-3 = assay: Motor neuron culture with Aβ1-42 insult: caspase-3 induction; assay type: cell-based, rat; conditions: all 3 concentrations, greatest effect at 100 nM; control increased by 91%
# Protocol: Primary motor neuron (MN) cultures generated from rat spinal cord were treated with 20 μM amyloid beta 1-42 peptide (Aβ1-42). This insult causes an acute increase in TDP-43 levels in the cells and serves as a model for the TDP-43 mislocalisation, aggregation and toxicity observed in the motor neurons of ALS patients (reviewed in Callizot et al, poster “Amyloid peptide and cytoplasmic TDP-43 accumulation in pathogenesis of ALS: an in vitro study”, http://www.neuro-sys.fr/IMG/pdf/poster_adpd2017_tdp43.pdf). This model was used to determine the effect of tacrolimus on TDP-43 toxicity in motor neurons.
# A separate group of cells was incubated with a) mouse monoclonal anti-microtubule-associated-protein 2 (MAP-2) antibody, and b) rabbit polyclonal anti-caspase-3 antibody. This group was used to determine the number of caspase-3-positive MN, i.e. the number of overlapping MAP-2 and caspase-3-positive cells.
# IL-6 = assay: Microglial inflammatory cytokine production by qPCR (LPS challenge); assay type: cell-based, rat; conditions: 100 ng/ml LPS overnight
# Protocol: To investigate the effect of tacrolimus on microglial function, rat microglia were isolated as follows. A primary glial co-culture was isolated from P2 Sprague Dawley rat pups. The cells were cultured until confluency and then the microglia were isolated from the confluent glial cells through mechanical shaking. The isolated microglial cells were then subjected to inflammatory challenge by overnight exposure to 100 ng/ml lipopolysaccharide (LPS), in the presence or absence of tacrolimus. Glial cell activity was monitored by determining cell viability (Cell Counting Kit-8), the presence of reactive oxygen species (by quantitative fluorescence measurement in the supernatant/cell lysate), microvesicle shedding (by monitoring vesicle formation in cells loaded with Calcein-AM and then challenged with 1 mM ATP) and inflammatory cytokine production (by qPCR).
# [2] = in vivo
# Protocol: Pharmacokinetic analysis was carried out by the Applicant. […] Therefore, even accounting for species differences in pharmacokinetics, preferred oral doses of tacrolimus in humans for the treatment of ALS would be expected to be below 1.3 mg/day and are likely to be below 0.55 mg/day.
# Based on pharmacokinetic analysis, an oral tacrolimus dose of 2 mg/kg/day in the mouse is believed to correspond to a human oral dose of about 0.33-0.44 mg/day for a 70 kg person.
smiles,measurement,setting,value
"C=CC[C@@H]1/C=C(\C)C[C@H](C)C[C@H](OC)[C@H]2O[C@@](O)(C(=O)C(=O)N3CCCC[C@H]3C(=O)O[C@H](/C(C)=C/[C@@H]3CC[C@@H](O)[C@H](OC)C3)[C@H](C)[C@@H](O)CC1=O)[C@H](C)C[C@@H]2OC [tacrolimus, Tacrolimus]",rate of ageing / chronological lifespan of stationary phase yeast culture,S. cerevisiae,significantly delays the rate of ageing and extends the chronological lifespan
same,interval between the x-intercepts at OD600=0.6 on days 1 and 9,S. cerevisiae; control without tacrolimus 287 minutes,63 min
same,lifespan,[1],significantly increasing the lifespan
same,caspase-3 levels in response to Aβ1-42 insult,caspase-3,increase was less
same,LPS induction of IL-6 expression,IL-6,significantly reduced
same,human oral dose corresponding to oral dose of 2 mg/kg/day in the mouse,[2],0.44-0.33
